The target of assay [1] is T1, PLK1 (Homo sapiens, UniProt P53350). The experiment in a line: In vitro PLK1 ELISA assay (biochemical). The arrangement: purchased Cell Signalling 7728. The essentials: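 Commercial PLK1 phosphorylates neutravidin-captured biotinylated CHK2 peptide for 45 min at room temperature in HEPES pH 7.2 with Mg2+/Mn2+/DTT, compounds at 10 μM to 0.005 μM. Phospho-CHK2(T68) antibody plus HRP secondary gives chemiluminescent read-out used for IC50.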

For assay [2], the target named is T1, PLK1. Put plainly: Cellular PLK1 assay in K562 cells overexpressing CDC25C. To be noted: nocodazole arrested, cdc25c p-Ser198 readout. The class given is cell-based. The arrangement: endogenous in cells; host or cells: K562 (human chronic myelogenous leukemia) overexpressing CDC25C, nocodazole-arrested. An outline of the steps:
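K562 cells overexpressing CDC25C were arrested with 333 nM nocodazole for 18 h at 37 °C, then exposed to compound at 8 points from 10 μM to 0.005 μM in duplicate for 120 min. After fixation and permeabilization, cells were stained for cdc25c pSer198 with a PE secondary and read by flow cytometry, 10,000 cells per well.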

The mark [3] stands for this setting: ELISA, CHK2-derived peptide substrate, read-out: PLK1 IC50 (μM) biochemical assay.
Setting [4] is: read-out: IC50 in biochemical in vitro PLK1 ELISA assay (less than 10 μM).
The mark [5] stands for this setting: read-out: IC50 in biochemical ELISA assay (less than 0.01 μM).

A value given as a limit tells only on which side of the number the result lay.

Data on 17 compounds can be found in patent US9040527B2, “Pyrimidinediamine kinase inhibitors” (Rigel Pharmaceuticals, Inc., priority 2008, dated 2015).

T1 sequence (P53350 whole entry): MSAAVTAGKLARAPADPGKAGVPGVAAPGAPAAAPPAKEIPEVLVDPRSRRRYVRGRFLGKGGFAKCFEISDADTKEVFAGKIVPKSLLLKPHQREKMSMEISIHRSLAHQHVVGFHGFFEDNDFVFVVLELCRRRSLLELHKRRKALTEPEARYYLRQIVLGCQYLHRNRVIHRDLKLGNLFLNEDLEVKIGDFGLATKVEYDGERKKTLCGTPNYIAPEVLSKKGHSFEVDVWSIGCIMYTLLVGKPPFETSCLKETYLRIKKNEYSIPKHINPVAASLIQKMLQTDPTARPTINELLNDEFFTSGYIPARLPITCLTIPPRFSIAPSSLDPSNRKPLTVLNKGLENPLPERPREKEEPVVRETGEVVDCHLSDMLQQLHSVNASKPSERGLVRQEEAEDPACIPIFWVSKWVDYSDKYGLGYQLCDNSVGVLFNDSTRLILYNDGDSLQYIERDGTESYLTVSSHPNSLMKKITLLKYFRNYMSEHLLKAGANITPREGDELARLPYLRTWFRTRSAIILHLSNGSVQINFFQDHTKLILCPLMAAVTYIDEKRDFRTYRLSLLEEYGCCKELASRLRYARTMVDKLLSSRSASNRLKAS

As a reminder, the IC50 is the concentration that inhibits the measured activity by half. Consider `Cc1cc(Nc2ncc(F)c(Nc3ccc4c(n3)N(Cc3ccccc3)C(=O)CO4)n2)ccc1N1CCN(C)CC1` [compound 118, 4-benzyl-6-(5-fluoro-2-(3-methyl-4-(4-methylpiperazin-1-yl)phenylamino)pyrimidin-4-ylamino)-2H-pyrido[3,2-b][1,4]oxazin-3(4H)-one], for which the IC50 on PLK1 [1] (setting [3]) was no less than 10 µM; at PLK1 [2], 0.5 to 5 µM.
Consider `CCN1C(=O)COc2ccc(Nc3nc(Nc4ccc(N5CCN(S(C)(=O)=O)CC5)cc4)ncc3C)cc21` [compound 196, 4-ethyl-6-(5-methyl-2-(4-(4-(methyl-sulfonyl)piperazin-1-yl)phenylamino)pyrimidin-4-ylamino)-2H-benzo[b][1,4]oxazin-3(4H)-one], for which the IC50 is 0.5 to 5 µM on PLK1 [1] (setting [3]), less than 10 µM on PLK1 [1] (setting [4]) and 5 to 10 µM on PLK1 [2].
For the compound `CC(C)c1cc(Nc2ncc(F)c(Nc3ccc4c(n3)NCCO4)n2)cc(N2CCN(C)CC2)c1` [compound 46, N4-(3,4-dihydro-2H-pyrido[3,2-b][1,4]oxazin-6-yl)-5-fluoro-N2-(3-isopropyl-5-(4-methylpiperazin-1-yl)phenyl)pyrimidine-2,4-diamine], the IC50 at PLK1 [1] (setting [3]) is less than 0.5 µM; on PLK1 [1] (setting [4]) it was less than 10 µM; against PLK1 [2], 0.5 to 5 µM.
In the case of `CN1CCN(c2cccc(Nc3ncc(F)c(Nc4ccc5c(n4)N(Cc4ccccc4)C(=O)CO5)n3)c2)CC1` [compound 120, 4-benzyl-6-(5-fluoro-2-(3-(4-methylpiperazin-1-yl)phenylamino)pyrimidin-4-ylamino)-2H-pyrido[3,2-b][1,4]oxazin-3(4H)-one], the IC50 at PLK1 [1] (setting [3]) was 0.5 to 5 µM; on PLK1 [1] (setting [4]), less than 10 µM; at PLK1 [2], 0.5 to 5 µM.
As for `CN1CCN(c2cccc(Nc3ncc(F)c(N(c4ccc5c(n4)NCCO5)C4CCCC4)n3)c2)CC1` [compound 54, N4-cyclopentyl-N4-(3,4-dihydro-2H-pyrido[3,2-b][1,4]oxazin-6-yl)-5-fluoro-N2-(3-(4-methylpiperazin-1-yl)phenyl)pyrimidine-2,4-diamine], the figures for the IC50 on PLK1 [1] (setting [3]), at PLK1 [1] (setting [4]) and against PLK1 [2] were 5 to 10 µM, less than 10 µM and no less than 10 µM, respectively.
With `Cc1cc(Nc2ncc(C)c(Nc3ccc4c(n3)NC(=O)C(C)(C)O4)n2)ccc1N1CCN(C)CC1` [compound 96, 2,2-dimethyl-6-(5-methyl-2-(3-methyl-4-(4-methylpiperazin-1-yl)phenylamino)pyrimidin-4-ylamino)-2H-pyrido[3,2-b][1,4]oxazin-3(4H)-one], the IC50 on PLK1 [1] (setting [3]) was 5 to 10 µM; on PLK1 [1] (setting [4]) it was less than 10 µM; against PLK1 [2] it was no less than 10 µM.
In the case of `COc1ccc(CN2C(=O)COc3ccc(Nc4nc(Nc5ccc(N6CCN(C)CC6)c(C)c5)ncc4F)nc32)cc1` [compound 124, 6-(5-fluoro-2-(3-methyl-4-(4-methylpiperazin-1-yl)phenylamino)pyrimidin-4-ylamino)-4-(4-methoxybenzyl)-2H-pyrido[3,2-b][1,4]oxazin-3(4H)-one], the IC50 at PLK1 [1] (setting [3]) and on PLK1 [2] was no less than 10 µM in each case.
For the compound `CCN1C(=O)COc2ccc(Nc3nc(Nc4ccc(N5CCN(C)CC5)c(C)c4)ncc3C)cc21` [compound 191, 4-ethyl-6-(5-methyl-2-(3-methyl-4-(4-methylpiperazin-1-yl)phenylamino)pyrimidin-4-ylamino)-2H-benzo[b][1,4]oxazin-3(4H)-one], the IC50 is 5 to 10 µM at PLK1 [1] (setting [3]), less than 10 µM at PLK1 [1] (setting [4]) and no less than 10 µM against PLK1 [2].
On to `COc1ccc(CN2C(=O)COc3ccc(Nc4nc(Nc5cccc(N6CCN(C)CC6)c5)ncc4C)nc32)cc1` [compound 125, 4-(4-methoxybenzyl)-6-(5-methyl-2-(3-(4-methylpiperazin-1-yl)phenylamino)pyrimidin-4-ylamino)-2H-pyrido[3,2-b][1,4]oxazin-3(4H)-one], for which the IC50 was 5 to 10 µM at PLK1 [1] (setting [3]), less than 10 µM at PLK1 [1] (setting [4]) and no less than 10 µM on PLK1 [2].
Consider `COc1cnc(Nc2cccc(N3CCN(C)CC3)c2)nc1Nc1ccc2c(n1)NC(=O)CO2` [compound 56, 6-(5-methoxy-2-(3-(4-methylpiperazin-1-yl)phenylamino)pyrimidin-4-ylamino)-2H-pyrido[3,2-b][1,4]oxazin-3(4H)-one], for which the IC50 on PLK1 [1] (setting [3]) is less than 0.5 µM; at PLK1 [1] (setting [4]) it was less than 10 µM; against PLK1 [2] it was no less than 10 µM.
On to `Cc1cc(Nc2ncc(C)c(Nc3ccc4c(n3)N(CC3CC3)C(=O)CO4)n2)ccc1N1CCN(C)CC1` [compound 114, 4-(cyclopropylmethyl)-6-(5-methyl-2-(3-methyl-4-(4-methyl-piperazin-1-yl)phenylamino)pyrimidin-4-ylamino)-2H-pyrido[3,2-b][1,4]oxazin-3(4H)-one], for which the values for the IC50 on PLK1 [1] (setting [3]), on PLK1 [1] (setting [4]) and on PLK1 [2] were 0.5 to 5 µM, less than 10 µM and no less than 10 µM, respectively.
Consider `Cc1ccc(Nc2ncc(F)c(Nc3ccc4c(n3)NCCO4)n2)cc1N1CC2CC1CN2C` (stereo not drawn) [compound 36, N4-(3,4-dihydro-2H-pyrido[3,2-b][1,4]oxazin-6-yl)-5-fluoro-N2-(4-methyl-3-(5-methyl-2,5-diazabicyclo[2.2.1]heptan-2-yl)phenyl)pyrimidine-2,4-diamine], for which the IC50 at PLK1 [1] (setting [3]) is less than 0.5 µM; on PLK1 [1] (setting [5]), less than 0.01 µM; at PLK1 [1] (setting [4]), less than 10 µM; against PLK1 [2] it was 0.5 to 5 µM.
For the compound `Cc1cnc(Nc2cccc(N3CCN(C)CC3)c2)nc1Nc1ccc2c(n1)NC(=O)CO2` [compound 51, 6-(5-methyl-2-(3-(4-methylpiperazin-1-yl)phenylamino)pyrimidin-4-ylamino)-2H-pyrido[3,2-b][1,4]oxazin-3(4H)-one], the IC50 on PLK1 [1] (setting [3]) was less than 0.5 µM; at PLK1 [1] (setting [5]), less than 0.01 µM; at PLK1 [1] (setting [4]) it was less than 10 µM; against PLK1 [2] it was 0.5 to 5 µM.
As to `CCCN1C(=O)COc2ccc(Nc3nc(Nc4ccc(N5CC6CC5CN6S(C)(=O)=O)c(C)c4)ncc3C)nc21` (stereo not drawn) [compound 32, 6-(5-methyl-2-(3-methyl-4-(5-(methylsulfonyl)-2,5-diazabicyclo[2.2.1]heptan-2-yl)phenylamino)pyrimidin-4-ylamino)-4-propyl-2H-pyrido[3,2-b][1,4]oxazin-3(4H)-one], the figures for the IC50 on PLK1 [1] (setting [3]), at PLK1 [1] (setting [4]) and against PLK1 [2] were 0.5 to 5 µM, less than 10 µM and 0.5 to 5 µM, respectively.
For the compound `CN1CCN(c2cc(Nc3ncc(F)c(Nc4ccc5c(n4)NC(=O)CO5)n3)cc(C3CC3)c2)CC1` [compound 50, 6-(2-(3-cyclopropyl-5-(4-methylpiperazin-1-yl)phenylamino)-5-fluoro-pyrimidin-4-ylamino)-2H-pyrido[3,2-b][1,4]oxazin-3(4H)-one], the IC50 on PLK1 [1] (setting [3]) is less than 0.5 µM; on PLK1 [1] (setting [5]), less than 0.01 µM; at PLK1 [1] (setting [4]) it was less than 10 µM; at PLK1 [2] it was less than 0.5 µM.
Regarding `CCCN1C(=O)COc2ccc(Nc3nc(Nc4ccc(N5CC6CC5CN6S(C)(=O)=O)c(C)c4)ncc3F)nc21` (stereo not drawn) [compound 31, 6-(5-fluoro-2-(3-methyl-4-(5-(methylsulfonyl)-2,5-diazabicyclo[2.2.1]heptan-2-yl)phenylamino)pyrimidin-4-ylamino)-4-propyl-2H-pyrido[3,2-b][1,4]oxazin-3(4H)-one], the IC50 on PLK1 [1] (setting [3]) was no less than 10 µM; against PLK1 [2], 0.5 to 5 µM.
With `CCCN1C(=O)COc2ccc(Nc3nc(Nc4ccc(N5CCN(C)CC5)c(C)c4)ncc3C)nc21` [compound 97, 6-(5-methyl-2-(3-methyl-4-(4-methylpiperazin-1-yl)phenylamino)pyrimidin-4-ylamino)-4-propyl-2H-pyrido[3,2-b][1,4]oxazin-3(4H)-one], the IC50 at PLK1 [1] (setting [3]) was less than 0.5 µM; on PLK1 [1] (setting [4]), less than 10 µM; at PLK1 [2], 0.5 to 5 µM.
